In PMC9370031, “Free Linoleic Acid and Oleic Acid Reduce Fat Digestion and Absorption In Vivo as Potent Pancreatic Lipase Inhibitors Derived from Sesame Meal” (Molecules, 2022):
Like-named read-outs stand apart in the source and are kept apart here.

Biological target: T1, porcine pancreatic lipase (Sus scrofa, UniProt P00591)
T1 construct: gene PNLIP
T1 sequence (P00591 1-450): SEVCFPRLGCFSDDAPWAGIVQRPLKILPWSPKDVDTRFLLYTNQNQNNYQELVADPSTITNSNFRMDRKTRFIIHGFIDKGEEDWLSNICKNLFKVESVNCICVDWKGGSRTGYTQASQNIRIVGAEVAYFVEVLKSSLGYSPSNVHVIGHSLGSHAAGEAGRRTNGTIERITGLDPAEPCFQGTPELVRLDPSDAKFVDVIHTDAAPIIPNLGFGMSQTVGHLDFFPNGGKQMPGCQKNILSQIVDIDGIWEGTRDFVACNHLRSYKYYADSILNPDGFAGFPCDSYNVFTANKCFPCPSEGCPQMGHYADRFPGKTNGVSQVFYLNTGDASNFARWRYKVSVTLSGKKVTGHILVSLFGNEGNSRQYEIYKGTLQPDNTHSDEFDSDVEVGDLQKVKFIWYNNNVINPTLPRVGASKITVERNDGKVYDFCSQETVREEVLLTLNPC
Assay: colorimetric lipase activity assay (Lipase Kit S, BLAB/DTNB, […] nm) with porcine pancreas lipase Type II
Type: biochemical

IC50 (read-out: IC50) [µM] | SMILES | IC50 [µM]
– | CCCCC/C=C\C/C=C\CCCCCCCC(=O)O [linoleic acid] | 82.4
41.4 | CCCCCCCC/C=C\CCCCCCCC(=O)O [oleic acid] | –
